Values after ≈ are worked out from the molar mass of the structure shown.
Experiments:
[1] = test system: Zika virus (strain MR766); test: CPE reduction, MTS assay, Zika virus in Vero cells; type: cell-based; conditions: protection against virus-induced CPE, read-out: Antiviral EC50 Zika Virus
in vitro [2] = conditions: human
in vitro [3] = conditions: African green monkey
in vitro [4] = conditions: human; remark: listed apart in the source
[5] = test system: yellow fever virus (vaccine strain 17D); test: microbe, parasite or virus in culture; type: cell-based; conditions: Vero, read-out: Antiviral EC50 Yellow Fever Virus
[6] = test system: Influenza A/H1N1 (A/Ned/378/05); test: Influenza CPE reduction in MDCK cells, MTS assay, A/H1N1; type: cell-based; conditions: Influenza A virus, H1N1, MDCK, read-out: Antiviral EC50 Influenza A/H1N1
[7] = test system: Influenza A/H3N2 (A/Victoria/361/11); test: Influenza CPE reduction in MDCK cells, MTS assay, A/H3N2; type: cell-based; conditions: Influenza A virus, H3N2, MDCK, read-out: Antiviral EC50 Influenza A/H3N2
[8] = test system: respiratory syncytial virus (RSV, strain Long); test: CPE reduction, MTS assay, RSV in HeLa cells; type: cell-based; conditions: human respiratory syncytial virus, read-out: Antiviral EC50 RSV
[9] = test system: Influenza B (B/Ned/537/05); test: Influenza CPE reduction in MDCK cells, MTS assay, influenza B; type: cell-based; conditions: Influenza B virus, inhibition of virus-induced CPE by MTS assay, read-out: Antiviral EC50 Influenza B
[10] = test system: S. aureus MSSA ATCC 29213; test: Broth microdilution MIC, S. aureus MSSA ATCC 29213; type: cell-based; conditions: Staphylococcus aureus; S. aureus MSSA ATCC 29213; broth microdilution; read-out: In Vitro MIC
Description: (§1) Antibacterial tests were carried out by the broth microdilution method on a panel of eight Gram-positive bacterial strains, using vancomycin and teicoplanin as reference compounds.

[11] = test system: HeLa, human cervix carcinoma cells; conditions: read-out: CC50 HeLa; mock-infected HeLa cells, MTS assay
[12] = test system: S. epidermidis ATCC 35984; test: Broth microdilution MIC, S. epidermidis ATCC 35984; type: cell-based; conditions: Staphylococcus epidermidis, ATCC35984; S. epidermidis ATCC 35984; broth microdilution; read-out: In Vitro MIC
Description: as §1

[13] = test system: E. faecalis ATCC 51,299 VanB; test: Broth microdilution MIC, E. faecalis ATCC 51,299 VanB; type: cell-based; conditions: Enterococcus faecalis, ATCC51, read-out: In Vitro MIC
Description: as §1

MDCK cells = conditions: read-out: CC50 (50% cytotoxic concentration), mock-infected, MTS cell viability assay, three days
A/PR/8/34 virus = type: cell-based, Influenza A virus
[14] = test system: S. aureus MRSA ATCC 33591; test: Broth microdilution MIC, S. aureus MRSA ATCC 33591; type: cell-based; conditions: Staphylococcus aureus, read-out: In Vitro MIC
Description: as §1

S. epidermidis mecA = test: Broth microdilution MIC, S. epidermidis mecA; type: cell-based; conditions: Staphylococcus epidermidis, read-out: In Vitro MIC
Description: as §1

B. subtilis ATCC 6633 = test: Broth microdilution MIC, B. subtilis ATCC 6633; type: cell-based; conditions: Bacillus subtilis, ATCC6633; B. subtilis ATCC 6633; broth microdilution; read-out: In Vitro MIC
Description: as §1

influenza A or B viruses = test: Anti-influenza virus activity in MDCK cells, MTS assay, overall for the three influenza A or B viruses; type: cell-based, Influenza A and B viruses
human coronavirus 229E [15] = test: Coronavirus 229E virus yield reduction, RT-qPCR of viral RNA in supernatant, HEL cells; type: cell-based; conditions: day 4 p.i.
Description: To assess inhibition of human coronavirus 229E replication, HEL cells were infected and treated with 1:2 serial compound dilutions. The plate contained three virus controls (receiving no compound) and two cell controls (receiving no virus and no compound). At day 4 p.i., supernatants were frozen at −80 °C to determine the virus yield by one-step RT-qPCR assay. Two microliters supernatant was mixed with 11 µl lysis mix containing lysis enhancer and resuspension buffer at a 1:10 ratio (CellsDirect One-Step RT-qPCR kit; Invitrogen), and heated for 10 min at 75 °C. Five microliters of lysate was transferred to a PCR plate containing 9.75 µl RT-qPCR mix (CellsDirect One-Step RT-qPCR) and 0.25 µl Superscript III RT/Platinum Taq enzyme, and coronavirus-229E N-gene specific primers and probe (forward primer 5′-[…] -3′; reverse primer 5′-[…] -3′; probe 5′-FAM-[…]-ZEN-[…] -IBFQ-3′). The RT-qPCR program consisted of 15 min at 50 °C, 2 min at 95 °C, and 50 cycles of 15 s at 95 °C and 45 s at 60 °C. An N-gene plasmid standard was included for absolute quantification.

E. faecalis ATCC 29212 = test: Broth microdilution MIC, E. faecalis ATCC 29212; type: cell-based; conditions: Enterococcus faecalis, ATCC29212; E. faecalis ATCC 29212; broth microdilution; read-out: In Vitro MIC
Description: as §1

E. faecalis 15,376 VanA = test: Broth microdilution MIC, E. faecalis 15,376 VanA; type: cell-based; conditions: Enterococcus faecalis, read-out: In Vitro MIC
Description: as §1

[16] = test system: Vero, African Green monkey kidney cells; conditions: read-out: CC50 Vero; mock-infected Vero cells, MTS assay
human coronavirus 229E [17] = type: cell-based; conditions: 25 µM compound (non-toxic concentration); HEL cells
[18] = test system: HEL, human embryonic lung fibroblast cells; conditions: read-out: CC50 HEL; mock-infected HEL cells, MTS assay

Structure (SMILES): COc1c(C)c2c(c(O)c1C/C=C(\C)CCC(=O)O)C(=O)OC2 [Mycophenolic acid]
- EC50 [1]: 0.8 µM
- CC50 (in vitro [2]): > 100 µM
- CC50 (in vitro [3]): > 100 µM
- CC50 (in vitro [4]): > 100 µM
- EC50 [5]: 0.7 µM

Structure (SMILES): NC(=O)c1ncn([C@@H]2O[C@H](CO)[C@@H](O)[C@H]2O)n1 [Ribavirin]
- EC50 [6]: 7 µM
- CC50 (in vitro [2]): > 250 µM
- CC50 (in vitro [3]): > 250 µM
- EC50 [7]: 6.4 µM
- EC50 [8]: 5 µM
- CC50 (in vitro [4]): > 250 µM
- EC50 [9]: 7.2 µM
- EC50 [5]: 119 µM

Structure (SMILES): CCCCCCCCCCOCc1cn(CCOCCOCCOCCOCc2cn(C3C(=O)NC(CC(N)=O)C(=O)NC4C(=O)NC5C(=O)NC(C(=O)NC(C(=O)O)c6cc(O)cc(O)c6-c6cc5ccc6O)C(O)c5ccc(c(Cl)c5)Oc5cc4cc(c5O)Oc4ccc(cc4Cl)C3O)nn2)nn1 (stereo not drawn) [Compound 6]
- MIC [10]: 128 mg/L (≈ 85.5 µM)
- CC50 [11]: > 100 µM
- MIC [12]: 32 mg/L (≈ 21.4 µM)
- MIC [13]: 128 mg/L (≈ 85.5 µM)
- CC50 (MDCK cells): 41 µM
- virus-induced cytopathic effect (CPE) upon microscopic inspection (A/PR/8/34 virus): no virus-induced cytopathic effect (CPE) was observed
- MIC [14]: 128 mg/L (≈ 85.5 µM)
- MIC (S. epidermidis mecA): 32 mg/L (≈ 21.4 µM)
- MIC (B. subtilis ATCC 6633): 32 mg/L (≈ 21.4 µM)
- anti-influenza virus activity (in words) (influenza A or B viruses): robust activity
- reduction of the viral RNA copy number in the supernatant (human coronavirus 229E [15]; 25 µM compound): 1000 fold
- EC99 value for reduction of virus yield (human coronavirus 229E [15]; RT-qPCR of supernatant): 20 µM
- MIC (E. faecalis ATCC 29212): 32 mg/L (≈ 21.4 µM)
- MIC (E. faecalis 15,376 VanA): 128 mg/L (≈ 85.5 µM)
- CC50 [16]: > 100 µM
- coronavirus 229E-induced cytopathicity observed microscopically (human coronavirus 229E [17]): no coronavirus 229E-induced cytopathicity could be observed microscopically
- CC50 [18]: > 100 µM

— PMC7407158, “Reprogramming of the Antibacterial Drug Vancomycin Results in Potent Antiviral Agents Devoid of Antibacterial Activity” (Pharmaceuticals, 2020)
